Test results taken from ChEMBL document CHEMBL3632524, “3-(2,6-Dichloro-benzyloxy)-11-oxo-olean-12-ene-29-oic acid, a semisynthetic derivative of glycyrrhetic acid: synthesis, antiproliferative, apoptotic and anti-angiogenesis activity” (Medchemcomm, 2015).

Tests used:
Assay type in all cases: functional, cell-based
PC-3 = assay: Antiproliferative activity against human PC3 cells assessed as cell viability after 48 hrs by MTT assay; details: PC-3, 48 h
[1] = Antiproliferative activity against human MIAPaCa2 cells assessed as cell viability after 48 hrs by MTT assay; details: MIA PaCa-2, 48 h
HepG2 = assay: Antiproliferative activity against human HepG2 cells assessed as cell viability after 48 hrs by MTT assay; details: HepG2, 48 h
HL-60 = assay: Cytotoxicity against human HL60 cells

IC50 (PC-3)	IC50 (HepG2)	Compound	IC50 [1]	IC50 (HL-60)
> 20 µM	> 20 µM	CC1(C)[C@@H](OCc2ccc(Br)cc2)CC[C@]2(C)[C@H]3C(=O)C=C4[C@@H]5C[C@@](C)(C(=O)O)CC[C@]5(C)CC[C@@]4(C)[C@]3(C)CC[C@@H]12	> 20 µM	
> 20 µM	> 20 µM	COc1ccc(CO[C@H]2CC[C@]3(C)[C@H]4C(=O)C=C5[C@@H]6C[C@@](C)(C(=O)O)CC[C@]6(C)CC[C@@]5(C)[C@]4(C)CC[C@H]3C2(C)C)cc1OC	> 20 µM	
> 20 µM	> 20 µM	COc1ccc(CO[C@H]2CC[C@]3(C)[C@H]4C(=O)C=C5[C@@H]6C[C@@](C)(C(=O)O)CC[C@]6(C)CC[C@@]5(C)[C@]4(C)CC[C@H]3C2(C)C)cc1Br	> 20 µM	
> 20 µM	> 20 µM	CC1(C)[C@@H](OCc2cccc([N+](=O)[O-])c2)CC[C@]2(C)[C@H]3C(=O)C=C4[C@@H]5C[C@@](C)(C(=O)O)CC[C@]5(C)CC[C@@]4(C)[C@]3(C)CC[C@@H]12	> 20 µM	
> 20 µM	> 20 µM	CC1(C)[C@@H](OCc2ccc(Cl)cc2)CC[C@]2(C)[C@H]3C(=O)C=C4[C@@H]5C[C@@](C)(C(=O)O)CC[C@]5(C)CC[C@@]4(C)[C@]3(C)CC[C@@H]12	> 20 µM	
> 20 µM	> 20 µM	CC(C)=CCC/C(C)=C\CO[C@H]1CC[C@]2(C)[C@H]3C(=O)C=C4[C@@H]5C[C@@](C)(C(=O)O)CC[C@]5(C)CC[C@@]4(C)[C@]3(C)CC[C@H]2C1(C)C	> 20 µM	
> 20 µM	> 20 µM	CC1(C)[C@@H](OCc2ccc3c(c2)OCO3)CC[C@]2(C)[C@H]3C(=O)C=C4[C@@H]5C[C@@](C)(C(=O)O)CC[C@]5(C)CC[C@@]4(C)[C@]3(C)CC[C@@H]12	> 20 µM	
18 µM	> 100 µM	CC1(C)[C@@H](OCc2ccc(Cl)cc2Cl)CC[C@]2(C)[C@H]3C(=O)C=C4[C@@H]5C[C@@](C)(C(=O)O)CC[C@]5(C)CC[C@@]4(C)[C@]3(C)CC[C@@H]12	> 100 µM	
> 20 µM	> 20 µM	CO[C@H]1CC[C@]2(C)[C@H]3C(=O)C=C4[C@@H]5C[C@@](C)(C(=O)O)CC[C@]5(C)CC[C@@]4(C)[C@]3(C)CC[C@H]2C1(C)C	> 20 µM	
> 20 µM	> 20 µM	CC1(C)[C@@H](O)CC[C@]2(C)[C@H]3C(=O)C=C4[C@@H]5C[C@@](C)(C(=O)O)CC[C@]5(C)CC[C@@]4(C)[C@]3(C)CC[C@@H]12 [ENOXOLONE]	> 20 µM	63.2 µM
> 20 µM	> 20 µM	CC1(C)[C@@H](OCc2ccccc2[N+](=O)[O-])CC[C@]2(C)[C@H]3C(=O)C=C4[C@@H]5C[C@@](C)(C(=O)O)CC[C@]5(C)CC[C@@]4(C)[C@]3(C)CC[C@@H]12	> 20 µM	
